In PubChem BioAssay AID2060893 (Molecular Pharmacology Branch, DTP, NCI, 2025):

Test system: K86415-001-R-J1-PDC complex spheroids, viability
Test: Anticancer human tumor K86415-001-R-J1-PDC patient-derived lung adenocarcinoma cell line growth inhibition [RAS]
Conditions: for IC50: curve of first compound; for viability, T/C: stronger effect = lower value
Procedure, shortened: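 Agents were tested in combination matrices in half-log decrements from a top concentration at or near clinical Cmax (10 microM if undetermined). Targets were multi-cell spheroids of tumour lines plus HUVEC and MSC stromal cells.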
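Note: spheroids exposed to agents for seven days before readout.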

Cc1nc(N2CCC3(CC2)COC(C)C3N)c(CO)nc1Sc1ccnc(N)c1Cl (configuration not stated) + CCn1c(-c2cc(N3CCN(C)CC3)cnc2C(C)OC)c2c3cc(ccc31)-c1csc(n1)CC(NC(=O)C1CC1C)C(=O)N1CCCC(N1)C(=O)OCC(C)(C)C2
IC50 (second compound 0.000949 µM): < 31.6 nM | IC50 (second compound 0.003 µM): < 31.6 nM | IC50 (second compound 0.00949 µM): < 31.6 nM | IC50 (second compound 0.03 µM): < 31.6 nM | IC50 (second compound 0.0949 µM): < 31.6 nM | IC50 (second compound 0.3 µM): < 31.6 nM | viability, T/C (second compound 0.000949 µM, first compound 0.0316 µM): 35.8% | viability, T/C (second compound 0.000949 µM, first compound 0.1 µM): 20.5% | viability, T/C (second compound 0.000949 µM, first compound 0.316 µM): 9.55% | viability, T/C (second compound 0.000949 µM, first compound 1 µM): 10.9% | viability, T/C (second compound 0.000949 µM, first compound 3.16 µM): 7.52% | viability, T/C (second compound 0.000949 µM, first compound 10 µM): 7.71% | viability, T/C (second compound 0.003 µM, first compound 0.0316 µM): 15.5% | viability, T/C (second compound 0.003 µM, first compound 0.1 µM): 11.7% | viability, T/C (second compound 0.003 µM, first compound 0.316 µM): 7.5% | viability, T/C (second compound 0.003 µM, first compound 1 µM): 6.79% | viability, T/C (second compound 0.003 µM, first compound 3.16 µM): 4.71% | viability, T/C (second compound 0.003 µM, first compound 10 µM): 4.41% | viability, T/C (second compound 0.00949 µM, first compound 0.0316 µM): 10.5% | viability, T/C (second compound 0.00949 µM, first compound 0.1 µM): 6.46% | viability, T/C (second compound 0.00949 µM, first compound 0.316 µM): 5.74% | viability, T/C (second compound 0.00949 µM, first compound 1 µM): 4.02% | viability, T/C (second compound 0.00949 µM, first compound 3.16 µM): 3.99% | viability, T/C (second compound 0.00949 µM, first compound 10 µM): 4.11% | viability, T/C (second compound 0.03 µM, first compound 0.0316 µM): 5.58% | viability, T/C (second compound 0.03 µM, first compound 0.1 µM): 3.68% | viability, T/C (second compound 0.03 µM, first compound 0.316 µM): 4.39% | viability, T/C (second compound 0.03 µM, first compound 1 µM): 3.48% | viability, T/C (second compound 0.03 µM, first compound 3.16 µM): 3.37% | viability, T/C (second compound 0.03 µM, first compound 10 µM): 3.97% | viability, T/C (second compound 0.0949 µM, first compound 0.0316 µM): 3.82% | viability, T/C (second compound 0.0949 µM, first compound 0.1 µM): 3.07% | viability, T/C (second compound 0.0949 µM, first compound 0.316 µM): 3.2% | viability, T/C (second compound 0.0949 µM, first compound 1 µM): 3.97% | viability, T/C (second compound 0.0949 µM, first compound 3.16 µM): 3.81% | viability, T/C (second compound 0.0949 µM, first compound 10 µM): 3.34% | viability, T/C (second compound 0.3 µM, first compound 0.0316 µM): 2.66% | viability, T/C (second compound 0.3 µM, first compound 0.1 µM): 3.52% | viability, T/C (second compound 0.3 µM, first compound 0.316 µM): 3.88% | viability, T/C (second compound 0.3 µM, first compound 1 µM): 3.34% | viability, T/C (second compound 0.3 µM, first compound 3.16 µM): 4.46% | viability, T/C (second compound 0.3 µM, first compound 10 µM): 2.74%
